# B1: endogenous PKD1 immunoprecipitated from 786-O cells (protein)
# chain: MSAPPVLRPPSPLLPVAAAAAAAAAALVPGSGPGPAPFLAPVAAPVGGISFHLQIGLSREPVLLLQDSSGDYSLAHVREMACSIVDQKFPECGFYGMYDKILLFRHDPTSENILQLVKAASDIQEGDLIEVVLSASATFEDFQIRPHALFVHSYRAPAFCDHCGEMLWGLVRQGLKCEGCGLNYHKRCAFKIPNNCSGVRRRRLSNVSLTGVSTIRTSSAELSTSAPDEPLLQKSPSESFIGREKRSNSQSYIGRPIHLDKILMSKVKVPHTFVIHSYTRPTVCQYCKKLLKGLFRQGLQCKDCRFNCHKRCAPKVPNNCLGEVTINGDLLSPGAESDVVMEEGSDDNDSERNSGLMDDMEEAMVQDAEMAMAECQNDSGEMQDPDPDHEDANRTISPSTSNNIPLMRVVQSVKHTKRKSSTVMKEGWMVHYTSKDTLRKRHYWRLDSKCITLFQNDTGSRYYKEIPLSEILSLEPVKTSALIPNGANPHCFEITTANVVYYVGENVVNPSSPSPNNSVLTSGVGADVARMWEIAIQHALMPVIPKGSSVGTGTNLHRDISVSISVSNCQIQENVDISTVYQIFPDEVLGSGQFGIVYGGKHRKTGRDVAIKIIDKLRFPTKQESQLRNEVAILQNLHHPGVVNLECMFETPERVFVVMEKLHGDMLEMILSSEKGRLPEHITKFLITQILVALRHLHFKNIVHCDLKPENVLLASADPFPQVKLCDFGFARIIGEKSFRRSVVGTPAYLAPEVLRNKGYNRSLDMWSVGVIIYVSLSGTFPFNEDEDIHDQIQNAAFMYPPNPWKEISHEAIDLINNLLQVKMRKRYSVDKTLSHPWLQDYQTWLDLRELECKIGERYITHESDDLRWEKYAGEQGLQYPTHLINPSASHSDTPETEETEMKALGERVSIL
# Tests used:
# Sp1 [1] = molecular target: T1, Sp1 (Oryctolagus cuniculus, UniProt G1SL61); experiment: anti-Sp1 immunoprecipitation of in vitro translated products; format: binding, rabbit; details: for Sp1 binding: translated in rabbit reticulocyte lysate; for competition with PAS1B for Sp1 binding: in vitro translated PAS1B, peptide 10, 100 and 1000 pmol
# T1 construct: from tissue; host or cells: rabbit reticulocyte lysate (in vitro translation system)
# T1 sequence (G1SL61 1-788): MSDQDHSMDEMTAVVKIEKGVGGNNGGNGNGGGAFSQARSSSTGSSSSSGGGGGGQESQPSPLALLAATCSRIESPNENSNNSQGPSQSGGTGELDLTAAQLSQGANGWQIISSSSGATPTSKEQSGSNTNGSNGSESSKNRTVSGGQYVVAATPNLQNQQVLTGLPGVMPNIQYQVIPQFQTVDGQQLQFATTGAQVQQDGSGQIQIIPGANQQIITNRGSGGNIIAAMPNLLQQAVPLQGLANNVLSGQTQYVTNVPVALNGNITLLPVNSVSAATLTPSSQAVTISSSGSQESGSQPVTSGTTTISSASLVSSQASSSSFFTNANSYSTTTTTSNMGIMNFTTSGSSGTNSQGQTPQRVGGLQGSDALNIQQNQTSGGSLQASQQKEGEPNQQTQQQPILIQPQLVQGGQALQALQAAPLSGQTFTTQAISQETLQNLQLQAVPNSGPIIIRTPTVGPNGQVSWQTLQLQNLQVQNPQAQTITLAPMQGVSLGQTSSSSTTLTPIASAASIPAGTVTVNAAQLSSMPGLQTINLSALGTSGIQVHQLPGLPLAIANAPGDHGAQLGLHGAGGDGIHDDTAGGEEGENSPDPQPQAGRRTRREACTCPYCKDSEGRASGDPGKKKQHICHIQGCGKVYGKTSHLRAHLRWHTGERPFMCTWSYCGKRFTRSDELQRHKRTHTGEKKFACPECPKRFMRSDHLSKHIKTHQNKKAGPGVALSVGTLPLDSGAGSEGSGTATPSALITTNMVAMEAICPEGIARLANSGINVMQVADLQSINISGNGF
# Method: (§1) Previously, it was shown that Myc displacement is mediated by the N-terminal HIF-1α (1-329), which competes with Myc for Sp1 binding in the MSH2 promoter (Koshiji et al, 2005). […] […] […] Of note, removal of part of the PAS-B from the C terminus (codon 299-329) destroyed Sp1 binding.
# (§2) Immunoprecipitations and Western blot was performed essentially as described previously (Huang et al., 1998; Koshiji et al., 2005). In vitro translation and immunoprecipitations are described as before (Gu et al., 2001; Koshiji et al., 2005). […]
# U-2 OS cells = experiment: immunofluorescent staining of γ-H2AX foci (DNA DSBs); format: cell-based
# Method: To ascertain the functional relevance of NBS1 repression by hypoxia, the extent of DNA damage was assessed by immunofluorescent staining of γ-H2AX foci, a most sensitive method for quantifying DNA DSBs (Rogakou et al, 1998, 1999). […] Furthermore, results also show strikingly colocalized foci of γ-H2AX and 53BP1, the latter of which is known to interact with various DNA repair proteins including γ-H2AX in response to DSBs (Schultz et al, 2000). Thus, hypoxic cells experience DNA DSBs, presumably resulting from the NBS1 repression.
# Immunofluorescence staining was performed essentially as described previously (Rogakou et al, 1999) with mouse anti-γ-H2AX antibody (Upstate) and rabbit anti-53BP1 (Novus Biologicals). Secondary antibodies were anti-mouse Alexa-546 and anti-rabbit Alexa-488 (Molecular Probes). Samples were mounted in antifade media, and were examined by fluorescent and laser-scanning confocal microscopy with a Nikon PCM 2000.
# NBS1 [2] = experiment: NBS1 protein levels by immunoblot in U-2 OS cells expressing PAS-B variants; format: cell-based; details: forced expression in U-2 OS cells
# Method: (§3) Immunoprecipitations and Western blot was performed essentially as described previously (Huang et al., 1998; Koshiji et al., 2005). In vitro translation and immunoprecipitations are described as before (Gu et al., 2001; Koshiji et al., 2005). The wheat germ extract system was purchased from Promega. λ protein phosphatase (New England Biolabs) and resveratrol (Sigma) with indicated concentrations were added to the in vitro translated products before immunoprecipitations.
# U-2 OS cells were transfected with the Nucleofector system (Amaxa). Briefly, 1×10^6 cells were suspended in 100 μl pre-warmed Nucleofector Solution Kit V containing 2 μg plasmids. After electroporation the cells were transferred immediately into pre-warmed complete McCoy's 5A medium and seeded in 6-well plates. Cells were harvested 48 h after transfection.
# recombinant PKD1 = molecular target: T2, recombinant PKD1 (Homo sapiens, UniProt Q15139); experiment: in vitro kinase assay; format: biochemical
# T2 construct: purchased Upstate Biotechnology
# T2 sequence (Q15139 1-912): B1 chain
# Method: The procedure for the in vitro kinase assay was modified from a previous report (Storz et al, 2003). Briefly, recombinant PKD1 (Upstate Biotechnology) was used as the source of enzyme in 20 μl of kinase buffer (50 mM Tris/HCl, pH 7.4, 10 mM MgCl2, 2 mM dithiothreitol). The kinase reaction was carried out for 30 min at room temperature after addition of 10 μl of kinase substrate mixture (150 μM substrate peptide, 50 μM ATP, 10 μCi of [γ-^32P]ATP in kinase buffer). A PKD1-specific substrate (Santa Cruz Biotechnology) was employed as a positive control. […] The reactions were terminated by adding 100 μl of 0.75% H3PO4, and 30 μl of the mixed supernatant was spotted to P-81 phosphocellulose paper (Whatman) in triplicates. Papers were washed thoroughly three times with 0.75% phosphoric acid, once with acetone, dried, and radioactivity incorporated into the synthetic peptide was determined in a scintillation counter. Endogenous PKD1 was immunoprecipitated with an anti-PKD1 antibody (SC-935; Santa Cruz) from 786-O cells lysed in a buffer containing 137 mM NaCl, 20 mM Tris (pH 7.5), 1 mM EGTA, 1 mM EDTA, 10% (v/v) glycerol, 1% (v/v) Nonidet P-40, 1 mM vanadate, and protease inhibitor cocktail (Roche). The immune complexes were washed three times with TBS (50 mM Tris/HCl, pH 7.4, 150 mM NaCl) and subjected to in vitro kinase assays.
# NBS1 [3] = experiment: NBS1 mRNA levels by real-time PCR in HCT116 cells; format: cell-based, human
# Method: HCT116 TP53^+/+, HCT116 TP53^−/− cells (Koshiji et al., 2004), and U-2 OS were grown in McCoy's 5A medium (Invitrogen), and HeLa cells in DMEM. For hypoxic treatment, cells were incubated in a hypoxic chamber (Innova CO-48, New Brunswick Scientific) maintaining 1% O2 and 5% CO2. Recombinant adenovirus generation and infection were as previously described (Koshiji et al., 2004).
# Total RNA extraction, reverse transcription, and quantitative PCR were performed essentially as described previously (Koshiji et al., 2005). Taqman Gene Expression Assay kits for NBS1, MRE11A, RAD50, MSH2, and ACTB were purchased from Applied Biosystems. All experiments were repeated three times in triplicates, and representative results were presented as means±standard errors.
# Sp1 [4] = experiment: anti-Sp1 immunoprecipitation followed by immunoblotting in HeLa cells; format: cell-based; details: for Sp1 binding: expressed ectopically in HeLa cells
# Method: as §3
# Sp1 [5] = experiment: anti-Sp1 immunoprecipitation of in vitro translated products; format: binding, rabbit; details: for Sp1 binding: produced in wheat germ extract (modification-deficient)
# Method: as §1, §2
# HIF-2α = experiment: Western blot after siRNA transfection of HCT116 cells; format: cell-based, human
# Method: Western Blot. Western blot analysis was carried out as described previously.
# (§4) RNA Interference. Transfection with siRNA duplexes and siRNA sequence information were described previously (Koshiji et al. 2005). CHK1 siRNA was described previously (Zhao et al. 2002). Luciferase siRNA was used as negative control.
# CDC25A = CDC25A and PGK1 mRNA by real-time RT-PCR in siRNA-transfected HCT116 cells; format: cell-based, human; details: siRNA 24 h then hypoxia 16 h
# Method: Real-Time RT-PCR. Real-time RT-PCR was performed essentially as described previously (Koshiji et al. 2005). Primer and probe (Applied Biosystems) sequences were as follows: CDC25A, forward 5′-[…]-3′ (SEQ ID NO: 25), reverse 5′-[…]-3′ (SEQ ID NO: 26), probe 5′-FAM-[…]-MGB-3′ (SEQ ID NO: 27). PGK-1 (FAM-MGB probe) and ACTB (VIC-MGB probe) were detected with endogenous control reagents from Applied Biosystems. β-actin primers and probe were included into each reaction for normalization. All the experiments were repeated three times in triplicate, and representative results were presented in mean±standard error.
# as §4
# [6] = molecular target: synthetic peptide including HIF-2α residues 314-331
molecule,measurement,setting,value
PAS1B T322V: PAS1B with T322V mutation,Sp1 binding,Sp1 [1],maintained PAS1B activity
PAS2B T324V: PAS2B with Thr-324 mutated to valine,γ-H2AX foci colocalized with 53BP1,U-2 OS cells; U-2 OS cells transiently expressing PAS-B variants,significantly increased
same,Sp1 binding,Sp1 [1],established binding
same,NBS1 protein levels,NBS1 [2],gained its ability to inhibit NBS1 protein levels
Ac-YGRKKRRQRRRGGGVWLETQGTVIYNPRN L-NH2 [HIF-2α peptide],phosphorylation of peptide substrate by recombinant PKD1,"recombinant PKD1; 150 μM substrate peptide, 30 min, room temperature",robustly phosphorylated
PAS1B T322E: PAS1B mutant mimicking phosphorylation at Thr-322 with glutamic acid substitution,Sp1 binding,Sp1 [1],lost Sp1 binding
same,NBS1 protein levels,NBS1 [2],failed to do so
"CC(=O)N(O)CCCCCNC(=O)CCC(=O)N(O)CCCCCNC(=O)CCC(=O)N(O)CCCCCN [Desferrioxamine, reference compound]",intensified γ-H2AX foci,"U-2 OS cells; U-2 OS cells treated with desferrioxamine, versus hypoxia",much greater increase
same,"γ-H2AX foci per cell, Mean","U-2 OS cells; U-2 OS cells, desferrioxamine conditions for 72 h",40.62 foci per cell
"HIF-2α: full-length HIF-2α, a close member of the HIF-α family",NBS1 repression,NBS1 [3]; adenovirus infection 16 h,no inhibition
same,Sp1 binding,Sp1 [1],neither full-length HIF-2α nor PAS2B exhibited Sp1-binding activity
same,Sp1 binding,Sp1 [4],no Sp1 binding was detected
PAS1B T327P: PAS1B with Thr-327 replaced by the HIF-2α residue proline,competition with PAS1B for Sp1 binding,Sp1 [1],neither PAS2B nor the PAS1B T327P mutant was able to compete
same,Sp1 binding,Sp1 [1],lost Sp1 binding
same,Sp1 binding,Sp1 [5],regained binding
PAS2B: HIF-2α PAS-B (codons 195-331),competition with PAS1B for Sp1 binding,Sp1 [1],neither PAS2B nor the PAS1B T327P mutant was able to compete
same,Sp1 binding,Sp1 [1],neither full-length HIF-2α nor PAS2B exhibited Sp1-binding activity
same,Sp1 binding,Sp1 [5],regained binding
same,Sp1 binding,Sp1 [4],no Sp1 binding was detected
"Oc1ccc(C=Cc2cc(O)cc(O)c2)cc1 [resveratrol, reference compound]",PKD1-mediated phosphorylation of consensus substrate peptide and HIF-2α peptide,recombinant PKD1; recombinant PKD1 preincubated with resveratrol (100 μM) for 10 min,abrogated
same,Sp1 binding of PAS2B,Sp1 [5]; 100 μM during synthesis of PAS2B in rabbit reticulocyte lysate,established Sp1 binding
same,PAS2B-Sp1 immunoprecipitated complexes,Sp1 [4]; HeLa cells expressing PAS2B treated with 5 nM of resveratrol,yielded PAS2B-Sp1 immunoprecipitated complexes
5′-AACAGCATCTTTGATAGCAGT-3″ [EPAS1 siRNA],effect on NBS1 and MSH2 downregulation and PGK1 upregulation in hypoxic cells,"NBS1 [3]; siRNA, hypoxia 1% O2 16 h",no obvious effects
same,HIF-2α levels,HIF-2α,reduced specifically
same,effect on hypoxic CDC25A down-regulation and PGK1 up-regulation,CDC25A,no obvious effects
B1,in vitro kinase assay with immunoprecipitated endogenous PKD1 and synthetic peptides,[6],endogenous PKD1 immunoprecipitated from 786-O cells specifically phosphorylated HIF-2α at Thr-324

# Source: patent publication US20100074897A1, “Methods and Compositions related to HIF-1 alpha” (University of Utah Research Foundation, priority 2006, published 2010)
